Read-outs that look alike come from different tables or passages of the source.
How the values were obtained:
Assay type in all cases: in vivo
[1] = system: barnyardgrass (Echinochloa crus-galli); experiment: Test B flooded paddy test; conditions: Echinochloa crus-galli, Flood, 1000 g ai/ha; scale 0 (no effect) to 100 (complete control); read-out: Plant response rating, Barnyardgrass
How it was run: (§1)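 Rice, umbrella sedge, duck salad and barnyardgrass grown to 2-leaf stage under flooded paddy conditions and treated with formulated test chemicals. Kept in greenhouse 13–15 days, then visually rated against untreated controls on a 0–100 scale (0 no effect, 100 complete control).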

[2] = system: duck salad (Heteranthera limosa); experiment: Test B flooded paddy test; conditions: Heteranthera limosa, Flood, 1000 g ai/ha; scale 0 to 100; read-out: Plant response rating, Ducksalad
How it was run: as §1

[3] = system: rice (Oryza sativa); experiment: Test B flooded paddy test; conditions: Oryza sativa, Flood, 1000 g ai/ha; scale 0 to 100; read-out: Plant response rating, Rice
How it was run: as §1

[4] = system: umbrella sedge (Cyperus difformis); experiment: Test B flooded paddy test; conditions: Cyperus difformis, Flood, 1000 g ai/ha; scale 0 to 100; read-out: Plant response rating, Sedge, Umbrella
How it was run: as §1

[5] = system: wild oat (Avena fatua); experiment: Test B postemergence; conditions: Avena fatua, post-emergence
How it was run: (§2)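 Greenhouse whole-plant test; surfactant-containing non-phytotoxic solvent formulation; pre- and postemergence applications made simultaneously; post plants 2–18 cm, 1- to 4-leaf; visual scoring at 13–15 days on 0–100 scale relative to controls.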

[6] = system: blackgrass (Alopecurus myosuroides); experiment: Test B postemergence; conditions: Alopecurus myosuroides, post-emergence
How it was run: as §2

[7] = system: pigweed (Amaranthus retroflexus); experiment: Test B pre/postemergence; conditions: Amaranthus retroflexus; for pest or weed control at 125 g/ha: 125 g ai/ha; for pest or weed control at 500 g/ha: 500 g ai/ha
How it was run: as §2

[8] = system: wheat (Triticum aestivum); experiment: Test B pre/postemergence; conditions: Triticum aestivum; for plant injury at 125 g/ha: 125 g ai/ha; for plant injury at 500 g/ha: 500 g ai/ha
How it was run: as §2

[9] = system: lambsquarters (Chenopodium album); experiment: Test B pre/postemergence; conditions: Chenopodium album; for pest or weed control at 125 g/ha: 125 g ai/ha; for pest or weed control at 500 g/ha: 500 g ai/ha
How it was run: as §2

[10] = system: Surinam grass (Brachiaria decumbens); experiment: Test B pre/postemergence; conditions: Urochloa decumbens; for pest or weed control at 125 g/ha: 125 g ai/ha; for pest or weed control at 500 g/ha: 500 g ai/ha
How it was run: as §2

[11] = system: corn (Zea mays); experiment: Test B pre/postemergence; conditions: Zea mays
How it was run: as §2

[12] = system: barnyardgrass (Echinochloa crus-galli); experiment: Test B pre/postemergence; conditions: Echinochloa crus-galli; for pest or weed control at 125 g/ha: 125 g ai/ha; for pest or weed control at 500 g/ha: 500 g ai/ha
How it was run: as §2

[13] = system: cocklebur (Xanthium strumarium); experiment: Test B pre/postemergence; conditions: Xanthium strumarium; for pest or weed control at 125 g/ha: 125 g ai/ha; for pest or weed control at 500 g/ha: 500 g ai/ha
How it was run: as §2

[14] = system: crabgrass (Digitaria sanguinalis); experiment: Test B pre/postemergence; conditions: Digitaria sanguinalis; for pest or weed control at 125 g/ha: 125 g ai/ha; for pest or weed control at 500 g/ha: 500 g ai/ha
How it was run: as §2

[15] = system: morningglory (Ipomoea coccinea); experiment: Test B pre/postemergence; conditions: Ipomoea; for pest or weed control at 125 g/ha: 125 g ai/ha; for pest or weed control at 500 g/ha: 500 g ai/ha
How it was run: as §2

[16] = system: velvetleaf (Abutilon theophrasti); experiment: Test B pre/postemergence; conditions: Abutilon theophrasti; for pest or weed control at 125 g/ha: 125 g ai/ha; for pest or weed control at 500 g/ha: 500 g ai/ha
How it was run: as §2

[17] = system: giant foxtail (Setaria faberii); experiment: Test B pre/postemergence; conditions: Setaria faberi; for pest or weed control at 125 g/ha: 125 g ai/ha; for pest or weed control at 500 g/ha: 500 g ai/ha
How it was run: as §2

## COC(=O)c1nc(C2CC2)nc(N)c1F [Compound 25]
[1]
  pest or weed control at 1000 g/ha: 30%
[2]
  pest or weed control at 1000 g/ha: 40%
[3]
  plant injury at 1000 g/ha: 30%
[4]
  pest or weed control at 1000 g/ha: 40%
[5]; 125 g ai/ha, scale 0 to 100 (0 no effect, 100 complete control), read-out: Oat, Wild plant response rating
  pest or weed control at 125 g/ha: 10%
[5]; 500 g ai/ha, scale 0 to 100, read-out: Plant response rating, Oat, Wild
  pest or weed control at 500 g/ha: 20%
[6]; 125 g ai/ha, scale 0 to 100 (0 no effect, 100 complete control), read-out: Blackgrass plant response rating
  pest or weed control at 125 g/ha: 10%
[6]; 500 g ai/ha, scale 0 to 100, read-out: Plant response rating, Blackgrass
  pest or weed control at 500 g/ha: 60%
[7]; post-emergence, Postemergence, scale 0 to 100 (0 no effect, 100 complete control), read-out: Pigweed plant response rating
  pest or weed control at 125 g/ha: 90%
[7]; post-emergence, Postemergence, scale 0 to 100, read-out: Plant response rating, Pigweed
  pest or weed control at 500 g/ha: 100%
[7]; pre-emergence, Preemergence, scale 0 to 100 (0 no effect, 100 complete control), read-out: Plant response rating, Pigweed
  pest or weed control at 125 g/ha: 80%
[7]; pre-emergence, Preemergence, scale 0 to 100 (0 no effect, 100 complete control), read-out: Pigweed plant response rating
  pest or weed control at 500 g/ha: 90%
[8]; post-emergence, Postemergence, scale 0 to 100 (0 no effect, 100 complete control), read-out: Wheat plant response rating
  plant injury at 125 g/ha: 20%
[8]; post-emergence, Postemergence, scale 0 to 100, read-out: Plant response rating, Wheat
  plant injury at 500 g/ha: 30%
[8]; pre-emergence, Preemergence, scale 0 to 100 (0 no effect, 100 complete control), read-out: Plant response rating, Wheat
  plant injury at 125 g/ha: 50%
[8]; pre-emergence, Preemergence, scale 0 to 100 (0 no effect, 100 complete control), read-out: Wheat plant response rating
  plant injury at 500 g/ha: 60%
[9]; post-emergence, Postemergence, scale 0 to 100 (0 no effect, 100 complete control), read-out: Lambsquarters plant response rating
  pest or weed control at 125 g/ha: 90%
[9]; post-emergence, Postemergence, scale 0 to 100, read-out: Plant response rating, Lambsquarters
  pest or weed control at 500 g/ha: 90%
[9]; pre-emergence, Preemergence, scale 0 to 100 (0 no effect, 100 complete control), read-out: Plant response rating, Lambsquarters
  pest or weed control at 125 g/ha: 90%
[9]; pre-emergence, Preemergence, scale 0 to 100 (0 no effect, 100 complete control), read-out: Lambsquarters plant response rating
  pest or weed control at 500 g/ha: 90%
[10]; post-emergence, Postemergence, scale 0 to 100 (0 no effect, 100 complete control), read-out: Surinam Grass plant response rating
  pest or weed control at 125 g/ha: 50%
[10]; post-emergence, Postemergence, scale 0 to 100, read-out: Plant response rating, Surinam Grass
  pest or weed control at 500 g/ha: 70%
[10]; pre-emergence, Preemergence, scale 0 to 100 (0 no effect, 100 complete control), read-out: Plant response rating, Surinam Grass
  pest or weed control at 125 g/ha: 20%
[10]; pre-emergence, Preemergence, scale 0 to 100 (0 no effect, 100 complete control), read-out: Surinam Grass plant response rating
  pest or weed control at 500 g/ha: 70%
[11]; post-emergence, Postemergence, 125 g ai/ha, scale 0 to 100 (0 no effect, 100 complete control), read-out: Corn plant response rating
  plant injury at 125 g/ha: 0%
[11]; post-emergence, Postemergence, 500 g ai/ha, scale 0 to 100
  Corn plant response rating (crop injury, 0 = no effect, 100 = complete kill) at 500 g/ha: 30%
[11]; pre-emergence, Preemergence, 125 g ai/ha, scale 0 to 100 (0 no effect, 100 complete control)
  Corn plant response rating (crop injury, 0 = no effect, 100 = complete kill) at 125 g/ha: 0%
[11]; pre-emergence, Preemergence, 500 g ai/ha, scale 0 to 100 (0 no effect, 100 complete control), read-out: Corn plant response rating
  plant injury at 500 g/ha: 0%
[12]; post-emergence, Postemergence, scale 0 to 100 (0 no effect, 100 complete control), read-out: Barnyardgrass plant response rating
  pest or weed control at 125 g/ha: 40%
[12]; post-emergence, Postemergence, scale 0 to 100, read-out: Plant response rating, Barnyardgrass
  pest or weed control at 500 g/ha: 80%
[12]; pre-emergence, Preemergence, scale 0 to 100 (0 no effect, 100 complete control), read-out: Plant response rating, Barnyardgrass
  pest or weed control at 125 g/ha: 20%
[12]; pre-emergence, Preemergence, scale 0 to 100 (0 no effect, 100 complete control), read-out: Barnyardgrass plant response rating
  pest or weed control at 500 g/ha: 60%
[13]; post-emergence, Postemergence, scale 0 to 100 (0 no effect, 100 complete control), read-out: Cocklebur plant response rating
  pest or weed control at 125 g/ha: 90%
[13]; post-emergence, Postemergence, scale 0 to 100, read-out: Plant response rating, Cocklebur
  pest or weed control at 500 g/ha: 90%
[13]; pre-emergence, Preemergence, scale 0 to 100 (0 no effect, 100 complete control), read-out: Plant response rating, Cocklebur
  pest or weed control at 125 g/ha: 80%
[13]; pre-emergence, Preemergence, scale 0 to 100 (0 no effect, 100 complete control), read-out: Cocklebur plant response rating
  pest or weed control at 500 g/ha: 90%
[14]; post-emergence, Postemergence, scale 0 to 100 (0 no effect, 100 complete control), read-out: Crabgrass plant response rating
  pest or weed control at 125 g/ha: 60%
[14]; post-emergence, Postemergence, scale 0 to 100, read-out: Plant response rating, Crabgrass
  pest or weed control at 500 g/ha: 80%
[14]; pre-emergence, Preemergence, scale 0 to 100 (0 no effect, 100 complete control), read-out: Plant response rating, Crabgrass
  pest or weed control at 125 g/ha: 60%
[14]; pre-emergence, Preemergence, scale 0 to 100 (0 no effect, 100 complete control), read-out: Crabgrass plant response rating
  pest or weed control at 500 g/ha: 70%
[15]; post-emergence, Postemergence, scale 0 to 100 (0 no effect, 100 complete control), read-out: Morningglory plant response rating
  pest or weed control at 125 g/ha: 90%
[15]; post-emergence, Postemergence, scale 0 to 100, read-out: Plant response rating, Morningglory
  pest or weed control at 500 g/ha: 90%
[15]; pre-emergence, Preemergence, scale 0 to 100 (0 no effect, 100 complete control), read-out: Plant response rating, Morningglory
  pest or weed control at 125 g/ha: 80%
[15]; pre-emergence, Preemergence, scale 0 to 100 (0 no effect, 100 complete control), read-out: Morningglory plant response rating
  pest or weed control at 500 g/ha: 90%
[16]; post-emergence, Postemergence, scale 0 to 100 (0 no effect, 100 complete control), read-out: Velvetleaf plant response rating
  pest or weed control at 125 g/ha: 60%
[16]; post-emergence, Postemergence, scale 0 to 100, read-out: Plant response rating, Velvetleaf
  pest or weed control at 500 g/ha: 70%
[16]; pre-emergence, Preemergence, scale 0 to 100 (0 no effect, 100 complete control), read-out: Plant response rating, Velvetleaf
  pest or weed control at 125 g/ha: 70%
[16]; pre-emergence, Preemergence, scale 0 to 100 (0 no effect, 100 complete control), read-out: Velvetleaf plant response rating
  pest or weed control at 500 g/ha: 80%
[17]; post-emergence, Postemergence, scale 0 to 100 (0 no effect, 100 complete control), read-out: Foxtail, Giant plant response rating
  pest or weed control at 125 g/ha: 50%
[17]; post-emergence, Postemergence, scale 0 to 100, read-out: Plant response rating, Foxtail, Giant
  pest or weed control at 500 g/ha: 80%
[17]; pre-emergence, Preemergence, scale 0 to 100 (0 no effect, 100 complete control), read-out: Plant response rating, Foxtail, Giant
  pest or weed control at 125 g/ha: 40%
[17]; pre-emergence, Preemergence, scale 0 to 100 (0 no effect, 100 complete control), read-out: Foxtail, Giant plant response rating
  pest or weed control at 500 g/ha: 80%

— patent publication US8802597B2, “Herbicidal pyrimidines” (E I du Pont de Nemours and Company, priority 2003, dated 2014)
